Where a name gives a salt, the structure may show the parent alone.
Key:
isolated heart = assay: Langendorff perfused isolated heart: perfusion pressure, contractive force, heart rate; set-up: species or system Wistar male rat; settings: for Contractive force (Δ %) / Heart rate (Δ %) / Perfusion pressure (Δ %): means value ± S.D., n = 3-4
Protocol: Hearts were isolated from Std; Wistar male rats weighing 200-300 g (9-10 weeks old). The hearts were perfused using Langendorff's apparatus at a flow rate of 8 ml/min. As a perfusate, Krebs-Henseleit-bicarbonate solution (37° C., pH 7.4) containing 11 mM glucose, oxygenated with a mixed gas of 95% O2 and 5% CO2 was used. The heart was preloaded with an initial resting tension of 2.0 g and paced at 200-300 beats min^-1. After the hearts were allowed to be stable for 30-60 minutes, 0.1 ml of a solution of each test compound in 10% DMSO was added thereto to be a concentration of 0.1, 1.0, 10 or 100 μg of each compound per heart.
Myocardial contractile force was isometrically measured by means of a force-displacement transducer (Type: TB-612T, made by Nihon Kohden Kogyo KK) connected to the apex of the heart through a thread. Coronary perfusion pressure was monitored by an electric manometer (Type: MPU-0.5, made by Nihon Kohden Kogyo KK) connected to a side branch of the aortic cannule.
[formula] A: value before adding a test compound B: value after adding a test compound

[1] = Acute oral toxicity (LD50); settings: mouse, in vivo, mice 22-27 g, ddY, male, 5 weeks
Protocol: The LD50 of the compounds obtained in Examples 1, 34, 37, 40 and 44 were more than 500 mg/kg when these compounds were given orally to mice weighing 22-27 g (ddY, male, 5 weeks).

[2] = tested on: anaphylactic histamine release from lung fragments; assay: Inhibition of anaphylactic histamine release (passively sensitized lung fragments, antigen challenge); type: cell-based, Hartley male guinea pig; settings: Cavia porcellus, 0.25 h; guinea pig lung fragments; DNP-egg albumin 0.3 μg/ml; compound added 10 min before antigen challenge; 37° C.; read-out: 25%-inhibitory conc. (anaphylactic histamine release)
Protocol: Inhibition of anaphylactic histamine release
Hartley male guinea pigs weighing about 450 g which were passively sensitized with an anti-DNP-egg albumin guinea pig serum were killed with a thiopentbarbital anesthetia. Their lungs were perfused by way of the pulmonary artery with a Tyrode's solution. The lungs were removed and fragmented. A definite weight of 100 mg lung fragments, which was distributed into individual tubes and suspended in 1 ml of Tyrode's solution, was challenged with the antigen (DNP-egg albumin, final concentration: 0.3 μg/ml) at 37° C. for 15 min. The test compounds obtained in Example, which were dissolved or suspended in Tyrode's solution, were added 10 min before antigen challenge. The reaction was stopped by immersing in ice cold water, and then centrifuged. The amount of histamine in the supernatant fluid was measured by using fluoremetric method according to Shore et al.
A: amount of histamine released by the antigen stimulation in the presence of a compound of the present invention
B: amount of histamine released spontaneously
C: amount of histamine released by the antigen stimulation.

[3] = biological target: T1, histamine-induced constriction of tracheal smooth muscle (Cavia porcellus, UniProt P31389); assay: Antihistaminic activity (isolated tracheal smooth muscle chain strips, histamine constriction); type: cell-based, Hartley male guinea pig; settings: guinea pig tracheal strip; compound 5 min prior to histamine; Van Rossum; read-out: pA2 (converted)
T1 construct: Isolated tracheal smooth muscle chain strips were prepared by a usual method; from tissue; host or cells: isolated tracheal smooth muscle chain strips of Hartley male guinea pigs
T1 sequence (P31389 whole entry): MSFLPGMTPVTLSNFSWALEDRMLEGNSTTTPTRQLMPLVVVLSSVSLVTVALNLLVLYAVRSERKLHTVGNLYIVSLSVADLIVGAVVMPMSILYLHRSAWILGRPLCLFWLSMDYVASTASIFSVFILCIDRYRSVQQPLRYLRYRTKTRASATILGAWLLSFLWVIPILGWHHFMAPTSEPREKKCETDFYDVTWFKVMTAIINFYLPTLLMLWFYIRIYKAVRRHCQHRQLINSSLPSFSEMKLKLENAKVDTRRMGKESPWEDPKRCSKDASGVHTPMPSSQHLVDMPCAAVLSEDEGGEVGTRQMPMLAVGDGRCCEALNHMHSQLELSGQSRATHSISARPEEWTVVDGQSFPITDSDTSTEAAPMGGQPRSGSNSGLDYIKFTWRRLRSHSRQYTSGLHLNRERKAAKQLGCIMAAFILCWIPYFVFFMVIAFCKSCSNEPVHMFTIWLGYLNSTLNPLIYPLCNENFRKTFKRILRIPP
Protocol: Hartley male guinea pigs weighing 500-600 g were used. Isolated tracheal smooth muscle chain strips were prepared by a usual method and suspended in 2 ml organ bath of Tyrode's solution aerated with 95% O2.5 % CO2 at 37° C. Each strip was attached to an isotonic transducer (made by Nihon Koden Kogyo KK) with a load of 0.5 g. After almost constant contraction, histamine was added cumulatively, until maximum constriction was obtained. The constriction of tracheal strip was recorded by Servocorder (made by Giraphtec KK). The strip was washed with Tyrode's solution and allowed to stabilize. Test compound was to the bath 5 min prior to the addition of histamine and the response curve to the histamine was repeated. The pA2 values were calculated using the techniques of Van Rossum.

[4] = 1 μg/heart, ** p <0.01 vs control
[5] = 10 μg/heart, ** p <0.01 vs control
[6] = 100 μg/heart, ** p <0.01 vs control

## CS(=O)(=O)Nc1ccccc1OCCCN1CCC(OC(c2ccc(Cl)cc2)c2ccccn2)CC1 (stereo not drawn) [Example 33, 4-[(4-chlorophenyl)-2-pyridylmethoxy]-1-[3-(2-methanesulfonylaminophenoxy)propyl]piperidine]
Isolated heart; 0.1 μg/heart
  Contractive force (Δ %): 5.0 ± 4.3%
  Heart rate (Δ %): -1.2 ± 2.1%
  Perfusion pressure (Δ %): -7.0 ± 6.1%
Isolated heart; 1 μg/heart
  Heart rate (Δ %): -1.9 ± 1.8%
Isolated heart; [4]
  Contractive force (Δ %): 13.3 ± 1.9%
  Perfusion pressure (Δ %): -19.2 ± 2.2%
Isolated heart; [5]
  Contractive force (Δ %): 16.0 ± 4.5%
  Heart rate (Δ %): -4.6 ± 4.7%
  Perfusion pressure (Δ %): -39.1 ± 5.4%
Isolated heart; [6]
  Contractive force (Δ %): -46.2 ± 13.4%
  Heart rate (Δ %): -17.2 ± 10.1%
  Perfusion pressure (Δ %): -40.1 ± 5.2%

## CS(=O)(=O)Nc1ccccc1OCCCN1CCC(OC(c2ccsc2)c2ccsc2)CC1 [Example 44, 4-di(3-thienyl)methoxy-1-[3-(2-methanesulfonylaminophenoxy)propyl]piperidine]
[1]
  LD50: > 500 mg/kg
Isolated heart; 0.1 μg/heart
  Contractive force (Δ %): 8.8 ± 2.5%
  Heart rate (Δ %): -5.7 ± 1.4%
  Perfusion pressure (Δ %): -6.0 ± 13.7%
Isolated heart; 1 μg/heart
  Heart rate (Δ %): -3.6 ± 4.1%
Isolated heart; [4]
  Contractive force (Δ %): 19.1 ± 5.7%
  Perfusion pressure (Δ %): -28.9 ± 3.0%
Isolated heart; [5]
  Contractive force (Δ %): 16.2 ± 11.3%
  Heart rate (Δ %): -6.3 ± 1.5%
  Perfusion pressure (Δ %): -47.9 ± 4.8%
Isolated heart; [6]
  Contractive force (Δ %): -46.3 ± 19.4%
  Heart rate (Δ %): -59.9 ± 11.1%
  Perfusion pressure (Δ %): -55.8 ± 3.5%

## CS(=O)(=O)Nc1ccccc1OCCCN1CCC(OC(c2ccccc2)c2cccnc2)CC1 (stereo not drawn) [Example 34 (fumarate)]
[2]
  IC25: 1000 nM
[3]
  Kb: 0.126 nM

## CS(=O)(=O)Nc1ccccc1OCCCN1CCC(OC(c2ccccc2)c2cccnc2)CC1 (stereo not drawn) [Example 34, 4-(phenyl-3-pyridylmethoxy)-1-[3-(2-methanesulfonylaminophenoxy)propyl]piperidine]
[1]
  LD50: > 500 mg/kg

## O=c1[nH]c2ccccc2n1CCCN1CCN(C(c2ccccc2)c2ccccc2)CC1 [Oxatomide, reference compound]
[2]
  IC25: 100000 nM
[3]
  Kb: 1.26 nM

## CS(=O)(=O)Nc1ccccc1OCCCN1CCC(OC(c2ccccc2)c2cccs2)CC1 (stereo not drawn) [Example 36 (fumarate)]
[2]
  IC25: 100 nM
[3]
  Kb: 2.51 nM

## CS(=O)(=O)Nc1ccccc1OCCCN1CCC(OC(c2ccsc2)c2ccsc2)CC1 [Example 44 (fumarate)]
[2]
  IC25: 30 nM
[3]
  Kb: 2.51 nM

## CS(=O)(=O)Nc1ccccc1OCCCN1CCC(OC(c2ccccc2)c2ccccc2)CC1 [Example 1, 4-diphenylmethoxy-1-[3-(2-methanesulfonylaminophenoxy)propyl]piperidine]
[1]
  LD50: > 500 mg/kg
[2]
  IC25: 1000 nM
[3]
  Kb: 2 nM
Isolated heart; 0.1 μg/heart
  Contractive force (Δ %): 2.0 ± 3.6%
  Heart rate (Δ %): 0.7 ± 1.2%
  Perfusion pressure (Δ %): -8.39 ± 3.4%
Isolated heart; 1 μg/heart
  Heart rate (Δ %): -0.7 ± 1.2%
Isolated heart; [4]
  Contractive force (Δ %): 11.9 ± 2.4%
  Perfusion pressure (Δ %): -24.8 ± 3.0%
Isolated heart; [5]
  Contractive force (Δ %): 11.8 ± 2.3%
  Heart rate (Δ %): -0.7 ± 1.2%
  Perfusion pressure (Δ %): -42.9 ± 3.2%
Isolated heart; [6]
  Contractive force (Δ %): -25.0 ± 6.8%
  Heart rate (Δ %): -16.6 ± 15.6%
  Perfusion pressure (Δ %): -49.0 ± 4.8%

## CS(=O)(=O)Nc1ccccc1OC/C=C\CN1CCC(OC(c2ccccc2)c2cccs2)CC1 (stereo not drawn) [Example 40, 4-(phenyl-2-thienylmethoxy)-1-[4-(2-methanesulfonylaminophenoxy)-2(Z)-butenyl]piperidine]
[1]
  LD50: > 500 mg/kg
[2]
  IC25: 100 nM
[3]
  Kb: 6.31 nM

## CC(CCOc1ccccc1NS(C)(=O)=O)N1CCC(OC(c2ccccc2)c2cccs2)CC1 (stereo not drawn) [Example 37, 4-(phenyl-2-thienylmethoxy)-1-[3-(2-methanesulfonylaminophenoxy)-1-methylpropyl]piperidine]
[1]
  LD50: > 500 mg/kg
[2]
  IC25: 100 nM
[3]
  Kb: 3.98 nM

## COc1ccc([C@@H]2Sc3ccccc3N(CCN(C)C)C(=O)[C@@H]2OC(C)=O)cc1 [Diltiazem hydrochloride, reference compound]
Isolated heart; 0.1 μg/heart
  Contractive force (Δ %): 3.5 ± 6.9%
  Heart rate (Δ %): -2.7 ± 1.8%
Isolated heart; 1 μg/heart
  Heart rate (Δ %): -3.5 ± 2.4%
Isolated heart; [4]
  Contractive force (Δ %): 7.0 ± 16.1%
  Perfusion pressure (Δ %): -32.1 ± 6.9%
Isolated heart; 10 μg/heart
  contractive force (in words): significant lowerings
  heart rates (in words): significant lowerings
Isolated heart; [5]
  Contractive force (Δ %): -67.1 ± 17.5%
  Heart rate (Δ %): -25.9 ± 30.3%
  Perfusion pressure (Δ %): -47.1 ± 1.4%
Isolated heart; [6]
  Contractive force (Δ %): -86.5 ± 7.0%
  Heart rate (Δ %): -71.4 ± 11.9%
  Perfusion pressure (Δ %): -48.8 ± 1.4%

## CC(C)c1ccc2oc3nc(N)c(C(=O)O)cc3c(=O)c2c1 [Amlexanox, reference compound]
[2]
  IC25: 30000 nM

Reference: patent publication US5190959A, “Piperidine compounds which have useful pharmaceutical activity” (Kaken Pharmaceutical Co. Ltd., priority 1991, dated 1993)
